Experimental data taken from patent US20160090556A1, “PRODUCTS COMPRISING MALODOR REDUCTION MATERIALS” (The Procter & Gamble Company, priority 2014, published 2016).
Read-outs that look alike come from different tables or passages of the source.

Experiment: Liquid dish neat product liquid-air partition coefficient
Type: physicochemical
Conditions: for Comment Code: Log of liquid dish neat product liquid-air partition coefficient: code letters K, L
[1] = class code letter within Comment Code

| Compound | Log of liquid dish neat product liquid-air partition coefficient (Comment Code K/L) [1] | Comment Code: Log of liquid dish neat product liquid-air partition coefficient | Log of liquid dish neat product liquid-air partition coefficient (Comment Code K/L) |
| --- | --- | --- | --- |
| CCOC(=O)C1CCC(C(=O)OCC)CC1 (stereo not drawn) [Material 347] | K (Log of liquid dish neat product liquid-air partition coefficient greater than or equal to −7) |  |  |
| CC(=O)OC(C)CC(C)(C)c1ccccc1 (stereo not drawn) [Material 1134] |  | K (Log of liquid dish neat product liquid-air partition coefficient greater than or equal to −7) |  |
| C=C(C)C1CC=C(CO)CC1 (stereo not drawn) [Material 948] |  |  | K (Log of liquid dish neat product liquid-air partition coefficient greater than or equal to −7) |
| CCOC(=O)C=Cc1ccccc1 [Material 400] |  | K (Log of liquid dish neat product liquid-air partition coefficient greater than or equal to −7) |  |
| CC1=CCOC(c2ccccc2)C1 (stereo not drawn) [Material 1016] |  |  | K (Log of liquid dish neat product liquid-air partition coefficient greater than or equal to −7) |
| C=C1C=CC(C(C)C)CCC(C)=CCC1 (stereo not drawn) [Material 296] | K (Log of liquid dish neat product liquid-air partition coefficient greater than or equal to −7) |  |  |
| CC(=O)C=CC12OC1(C)CCCC2(C)C (stereo not drawn) [Material 636] |  |  | K (Log of liquid dish neat product liquid-air partition coefficient greater than or equal to −7) |
| Cc1ccc2c(c1)CC(C)(CO)C2 (stereo not drawn) [Material 161] | K (Log of liquid dish neat product liquid-air partition coefficient greater than or equal to −7) |  |  |
| C=CCCCCCCCCC(=O)OCCC(C)C [Material 234] | K (Log of liquid dish neat product liquid-air partition coefficient greater than or equal to −7) |  |  |
| CC1/C=C/CCCCCCCCCCC(=O)C1 (stereo not drawn) [Material 80] | K (Log of liquid dish neat product liquid-air partition coefficient greater than or equal to −7) |  |  |
| CCCCCCCCCCCC(OC)OC [Material 421] | K (Log of liquid dish neat product liquid-air partition coefficient greater than or equal to −7) |  |  |
| CCCCCCC#CC(OC)OC [Material 3] | K (Log of liquid dish neat product liquid-air partition coefficient greater than or equal to −7) |  |  |
| CC1=CC2C(C(C)C)CCC(C)(O)C2CC1 (stereo not drawn) [Material 716] |  |  | K (Log of liquid dish neat product liquid-air partition coefficient greater than or equal to −7) |
| C=CCCCCCCCCO [Material 470] | K (Log of liquid dish neat product liquid-air partition coefficient greater than or equal to −7) |  |  |
| CC(=O)OC(C)CCC=C(C)CCC=C(C)C (racemic) [Material 881] |  |  | K (Log of liquid dish neat product liquid-air partition coefficient greater than or equal to −7) |
| CCC(=O)OC1CC2C3C=CCC3C1C2(C)C (stereo not drawn) [Material 343] | K (Log of liquid dish neat product liquid-air partition coefficient greater than or equal to −7) | K (Log of liquid dish neat product liquid-air partition coefficient greater than or equal to −7) |  |
| CCOC(=O)C1C(CC)=CCCC1(C)C (stereo not drawn) [Material 294] | K (Log of liquid dish neat product liquid-air partition coefficient greater than or equal to −7) |  |  |
| CCCCCCOC(=O)c1ccccc1 [Material 271] | K (Log of liquid dish neat product liquid-air partition coefficient greater than or equal to −7) |  |  |
| CC1CCOC(c2ccccc2)C1 (stereo not drawn) [Material 420] |  | K (Log of liquid dish neat product liquid-air partition coefficient greater than or equal to −7) |  |
| C=C(C)C1CCC2(C)CCC=C(C)C2C1 (stereo not drawn) [Material 774] |  |  | K (Log of liquid dish neat product liquid-air partition coefficient greater than or equal to −7) |
| CCC(=O)OC1CC2CC1C1CC=CC21 (stereo not drawn) [Material 919] |  | K (Log of liquid dish neat product liquid-air partition coefficient greater than or equal to −7) | K (Log of liquid dish neat product liquid-air partition coefficient greater than or equal to −7) |
| C=C1C2CCC(C2)C1(C)CCC=C(C)CO (stereo not drawn) [Material 616] |  | K (Log of liquid dish neat product liquid-air partition coefficient greater than or equal to −7) | K (Log of liquid dish neat product liquid-air partition coefficient greater than or equal to −7) |
| C=C(C)[C@@H]1CCC2=CCC[C@@H](C)[C@]2(C)C1 [Material 1105] |  |  | K (Log of liquid dish neat product liquid-air partition coefficient greater than or equal to −7) |

| Compound | Log of liquid dish neat product liquid-air partition coefficient (Comment Code K/L) [1] | Comment Code: Log of liquid dish neat product liquid-air partition coefficient | Log of liquid dish neat product liquid-air partition coefficient (Comment Code K/L) |
| --- | --- | --- | --- |
| CC(=O)OCC=Cc1ccccc1 [Material 553] | K (Log of liquid dish neat product liquid-air partition coefficient greater than or equal to −7) |  |  |
| OCCc1ccccc1 [Material 955] |  |  | K (Log of liquid dish neat product liquid-air partition coefficient greater than or equal to −7) |
| CC(=O)C(C)=CC1C(C)=CCCC1(C)C (stereo not drawn) [Material 703] |  | K (Log of liquid dish neat product liquid-air partition coefficient greater than or equal to −7) |  |
| C=C(C=O)C(C)CCC=C(C)C (stereo not drawn) [Material 819] |  | K (Log of liquid dish neat product liquid-air partition coefficient greater than or equal to −7) |  |
| CC=CC(=O)C1C(C)C=CCC1(C)C (stereo not drawn) [Material 466] | K (Log of liquid dish neat product liquid-air partition coefficient greater than or equal to −7) |  |  |
| CCOC(=O)OC1CCCCC1C(C)(C)C (stereo not drawn) [Material 355] |  | K (Log of liquid dish neat product liquid-air partition coefficient greater than or equal to −7) |  |
| CC1=CC[C@@H]2[C@@]3(C)CCCC(C)(C)[C@@H]3CC[C@@]2(C)O1 [Material 1029] |  | K (Log of liquid dish neat product liquid-air partition coefficient greater than or equal to −7) | K (Log of liquid dish neat product liquid-air partition coefficient greater than or equal to −7) |
| CC(=CCC1CC=C(C)C1(C)C)CO (stereo not drawn) [Material 1025] |  |  | K (Log of liquid dish neat product liquid-air partition coefficient greater than or equal to −7) |
| CCCCCCCCCC(=O)O [Material 582] |  |  | K (Log of liquid dish neat product liquid-air partition coefficient greater than or equal to −7) |
| CC1=CCC(C)C(C)C12C=CC(C)O2 (stereo not drawn) [Material 192] | K (Log of liquid dish neat product liquid-air partition coefficient greater than or equal to −7) |  |  |
| CC(CCO)CCCC(C)(C)O (stereo not drawn) [Material 249] | K (Log of liquid dish neat product liquid-air partition coefficient greater than or equal to −7) |  |  |
| CC1CCC2(O)C(C)(C)C3CCC2(C)C1C3 (stereo not drawn) [Material 933] |  | K (Log of liquid dish neat product liquid-air partition coefficient greater than or equal to −7) | K (Log of liquid dish neat product liquid-air partition coefficient greater than or equal to −7) |
| CC/C=C\CCC1=CCCC1=O [Material 146] | K (Log of liquid dish neat product liquid-air partition coefficient greater than or equal to −7) |  |  |
| CC(=O)c1oc2ccccc2c1C [Material 61] | K (Log of liquid dish neat product liquid-air partition coefficient greater than or equal to −7) |  |  |
| CCOc1cc(COC)ccc1O [Material 115] |  | K (Log of liquid dish neat product liquid-air partition coefficient greater than or equal to −7) |  |
| CC(C)C(=O)OCC=Cc1ccccc1 [Material 550] | K (Log of liquid dish neat product liquid-air partition coefficient greater than or equal to −7) |  |  |
| CCc1ccc(CC(C)(C)C#N)cc1 [Material 361] | K (Log of liquid dish neat product liquid-air partition coefficient greater than or equal to −7) |  |  |
| CC(C)(O)Cc1ccccc1 [Material 649] |  |  | K (Log of liquid dish neat product liquid-air partition coefficient greater than or equal to −7) |
| c1ccc(CCOC2CCCCC2)cc1 [Material 953] |  |  | K (Log of liquid dish neat product liquid-air partition coefficient greater than or equal to −7) |
| C[C@@H]1CCC=C2CC[C@@H](C(C)(C)O)C[C@]21C [Material 1107] |  | K (Log of liquid dish neat product liquid-air partition coefficient greater than or equal to −7) | K (Log of liquid dish neat product liquid-air partition coefficient greater than or equal to −7) |
| CCC=C(C)C(O)CCCCC (stereo not drawn) [Material 1104] |  |  | K (Log of liquid dish neat product liquid-air partition coefficient greater than or equal to −7) |
| CC(=O)CCC1C(C)=CCCC1(C)C (stereo not drawn) [Material 448] |  | K (Log of liquid dish neat product liquid-air partition coefficient greater than or equal to −7) |  |
